Data reported in patent publication US11180462B2, “Microbiocidal oxadiazole derivatives” (SYNGENTA PARTICIPATIONS AG, priority 2015, dated 2021).

What was measured:
Phakopsora Pachyrhizi = test: Fungicidal activity against Phakopsora pachyrhizi / soybean / leaf disc preventative (Asian soybean rust); assay type: in vivo; conditions: foliar, 200 ppm in the applied formulation, soybean leaf disks, compared to untreated control leaf disks, read-out: disease control
Procedure, shortened: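 Scored 12 to 14 days post-application as percent control relative to untreated check discs, rust spores were sprayed under the disc one day after compound treatment. Incubation: 20°C, 75% rh, first 24–36 h in darkness, then 12 h daily light; discs kept on water agar.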

[1] = tested on: Glomerella lagenarium (Colletotrichum lagenarium); test: Fungicidal activity against Glomerella lagenarium (Colletotrichum lagenarium) liquid culture / cucumber / preventative (anthracnose); assay type: cell-based; conditions: Colletotrichum orbiculare; 20 ppm in the applied formulation; liquid culture (PDB), growth inhibition measured photometrically after 3 to 4 days; compared to untreated control; read-out: disease control
Procedure, shortened: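 Percent activity against the untreated check was derived from photometric growth measurements made 2 to 7 days after conidia in potato dextrose broth were combined with compound at 20 ppm. Cultures were kept dark at 24 °C and 96% humidity.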

[2] = tested on: Puccinia recondita f. Sp. Tritici; test: Fungicidal activity against Puccinia recondita f. sp. tritici / wheat / leaf disc preventative (brown rust); assay type: in vivo; conditions: foliar, 200 ppm in the applied formulation, wheat leaf segments, preventative, compared to untreated control leaf disks, read-out: disease control
Procedure, shortened: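 200 ppm spray on wheat cv. Kanzler leaf segments; spore inoculation +1 day; 19° C., 75% rh, 12 h/12 h light cycle; single rating of % control vs untreated at 7 to 9 days.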

[3] = tested on: Puccinia recondita f. Sp. Tritici; test: Fungicidal activity against Puccinia recondita f. sp. tritici / wheat / leaf disc curative (brown rust); assay type: in vivo; conditions: foliar, 24 h, 200 ppm in the applied formulation, wheat leaf segments, curative (applied 1 day after inoculation), compared to untreated control leaf disks, read-out: disease control
Procedure, shortened: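 Wheat cv. Kanzler leaf segments on agar, inoculated with rust spore suspension, kept dark at 19° C and 75% RH; formulated compound sprayed 1 day post-inoculation. Incubated 19° C, 75% RH, 12 h light/12 h dark; percent disease control vs untreated scored 6 to 8 days after application.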

CON(Cc1ccc(-c2noc(C(F)(F)F)n2)cc1)C(=O)CO [Compound 1.778, 2-hydroxy-N-methoxy-N-[[4-[5-(trifluoromethyl)-1,2,4-oxadiazol-3-yl]phenyl]methyl]-acetamide]
≥ 80%: pest or weed control at 200 ppm (Phakopsora Pachyrhizi) | inhibition of growth at 20 ppm [1] | pest or weed control at 200 ppm [2] | pest or weed control at 200 ppm [3]

C=CCN(Cc1ccc(-c2noc(C(F)(F)F)n2)cc1)C(=O)C1CC1F (centres unmarked) [Compound 1.491, N-allyl-2-fluoro-N-[[4-[5-(trifluoromethyl)-1,2,4-oxadiazol-3-yl]phenyl]methyl]-cyclopropane-carboxamide]
≥ 80%: pest or weed control at 200 ppm (Phakopsora Pachyrhizi) | inhibition of growth at 20 ppm [1] | pest or weed control at 200 ppm [2] | pest or weed control at 200 ppm [3]

O=C(C1CCOC1)N(Cc1ccc(-c2noc(C(F)(F)F)n2)cc1)CC(F)(F)F (centres unmarked) [Compound 1.692, N-(2.2.2-trifluoroethyl)-N-[[4-[5-(trifluoromethyl)-1,2,4-oxadiazol-3-yl]phenyl]methyl]-tetrahydrofuran-3-carboxamide]
≥ 80%: pest or weed control at 200 ppm (Phakopsora Pachyrhizi) | inhibition of growth at 20 ppm [1] | pest or weed control at 200 ppm [2] | pest or weed control at 200 ppm [3]

CON(Cc1ccc(-c2noc(C(F)(F)F)n2)cc1)C(=O)C1CCOC1 (centres unmarked) [Compound 1.29, N-methoxy-N-[[4-[5-(trifluoromethyl)-1,2,4-oxadiazol-3-yl]phenyl]methyl]-tetrahydrofuran-3-carboxamide]
≥ 80%: pest or weed control at 200 ppm (Phakopsora Pachyrhizi) | inhibition of growth at 20 ppm [1] | pest or weed control at 200 ppm [2] | pest or weed control at 200 ppm [3]

C=CCN(Cc1ccc(-c2noc(C(F)(F)F)n2)cc1)C(=O)CC [Compound 1.477, N-allyl-N-[[4-[5-(trifluoromethyl)-1,2,4-oxadiazol-3-yl]phenyl]methyl]-propanamide]
≥ 80%: pest or weed control at 200 ppm (Phakopsora Pachyrhizi) | inhibition of growth at 20 ppm [1] | pest or weed control at 200 ppm [2] | pest or weed control at 200 ppm [3]

C=CCN(Cc1ccc(-c2noc(C(F)(F)F)n2)cc1)C(=O)C(C)OC (centres unmarked) [Compound 1.492, N-allyl-2-methoxy-N-[[4-[5-(trifluoromethyl)-1,2,4-oxadiazol-3-yl]phenyl]methyl]-propanamide]
≥ 80%: pest or weed control at 200 ppm (Phakopsora Pachyrhizi) | inhibition of growth at 20 ppm [1] | pest or weed control at 200 ppm [2] | pest or weed control at 200 ppm [3]

CON(Cc1ccc(-c2noc(C(F)(F)F)n2)cc1)C(=O)C1CSC1 [Compound 1.30, N-methoxy-N-[[4-[5-(trifluoromethyl)-1,2,4-oxadiazol-3-yl]phenyl]methyl]-thietane-3-carboxamide]
≥ 80%: pest or weed control at 200 ppm (Phakopsora Pachyrhizi) | inhibition of growth at 20 ppm [1] | pest or weed control at 200 ppm [2] | pest or weed control at 200 ppm [3]

CCC(C)N(Cc1ccc(-c2noc(C(F)(F)F)n2)cc1)C(=O)C1(C)COC1 (centres unmarked) [Compound 1.395, 3-methyl-N-sec-butyl-N-[[4-[5-(trifluoromethyl)-1,2,4-oxadiazol-3-yl]phenyl]methyl]-oxetane-3-carboxamide]
≥ 80%: pest or weed control at 200 ppm (Phakopsora Pachyrhizi) | inhibition of growth at 20 ppm [1] | pest or weed control at 200 ppm [2] | pest or weed control at 200 ppm [3]

CCCN(Cc1ccc(-c2noc(C(F)(F)F)n2)cc1)C(C)=O [Compound 1.668, N-propyl-N-[[4-[5-(trifluoromethyl)-1,2,4-oxadiazol-3-yl]phenyl]methyl]-acetamide]
≥ 80%: pest or weed control at 200 ppm (Phakopsora Pachyrhizi) | inhibition of growth at 20 ppm [1] | pest or weed control at 200 ppm [2] | pest or weed control at 200 ppm [3]

CCC(=O)N(CC)Cc1ccc(-c2noc(C(F)(F)F)n2)cc1 [Compound 1.497, N-ethyl-N-[[4-[5-(trifluoromethyl)-1,2,4-oxadiazol-3-yl]phenyl]methyl]-propanamide]
≥ 80%: pest or weed control at 200 ppm (Phakopsora Pachyrhizi) | inhibition of growth at 20 ppm [1] | pest or weed control at 200 ppm [2] | pest or weed control at 200 ppm [3]

O=C(C1CSC1)N(Cc1ccc(-c2noc(C(F)(F)F)n2)cc1)CC1CC1 [Compound 1.216, N-(cyclopropylmethyl)-N-[[4-[5-(trifluoromethyl)-1,2,4-oxadiazol-3-yl]phenyl]methyl]-thietane-3-carboxamide]
≥ 80%: pest or weed control at 200 ppm (Phakopsora Pachyrhizi) | inhibition of growth at 20 ppm [1] | pest or weed control at 200 ppm [2] | pest or weed control at 200 ppm [3]

CCCN(Cc1ccc(-c2noc(C(F)(F)F)n2)cc1)C(=O)C(C)OC (centres unmarked) [Compound 1.666, 2-methoxy-N-propyl-N-[[4-[5-(trifluoromethyl)-1,2,4-oxadiazol-3-yl]phenyl]methyl]-propanamide]
≥ 80%: pest or weed control at 200 ppm (Phakopsora Pachyrhizi) | inhibition of growth at 20 ppm [1] | pest or weed control at 200 ppm [2] | pest or weed control at 200 ppm [3]

C=CCCC(=O)N(Cc1ccc(-c2noc(C(F)(F)F)n2)cc1)OC [Compound 1.17, N-methoxy-N-[[4-[5-(trifluoromethyl)-1,2,4-oxadiazol-3-yl]phenyl]methyl]-pent-4-enamide]
≥ 80%: pest or weed control at 200 ppm (Phakopsora Pachyrhizi) | inhibition of growth at 20 ppm [1] | pest or weed control at 200 ppm [2] | pest or weed control at 200 ppm [3]

CCCC(=O)N(Cc1ccc(-c2noc(C(F)(F)F)n2)cc1)C1CC1 [Compound 1.97, N-cyclopropyl-N-[[4-[5-(trifluoromethyl)-1,2,4-oxadiazol-3-yl]phenyl]methyl]-butanamide]
≥ 80%: pest or weed control at 200 ppm (Phakopsora Pachyrhizi) | inhibition of growth at 20 ppm [1] | pest or weed control at 200 ppm [2] | pest or weed control at 200 ppm [3]

O=C(C1CC1(F)F)N(Cc1ccc(-c2noc(C(F)(F)F)n2)cc1)CC(F)(F)F (centres unmarked) [Compound 1.690, 2,2-difluoro-N-(2,2,2-trifluoroethyl)-N-[[4-[5-(trifluoromethyl)-1,2,4-oxadiazol-3-yl]phenyl]methyl]-cyclopropane-carboxamide]
≥ 80%: pest or weed control at 200 ppm (Phakopsora Pachyrhizi) | inhibition of growth at 20 ppm [1] | pest or weed control at 200 ppm [2] | pest or weed control at 200 ppm [3]

CC(C)N(Cc1ccc(-c2noc(C(F)(F)F)n2)cc1)C(=O)CC1CC1 [Compound 1.688, 2-cycloopropyl-N-isopropyl-N-[[4-[5-(trifluoromethyl)-1,2,4-oxadiazol-3-yl]phenyl]methyl]-acetamide]
≥ 80%: pest or weed control at 200 ppm (Phakopsora Pachyrhizi) | inhibition of growth at 20 ppm [1] | pest or weed control at 200 ppm [2] | pest or weed control at 200 ppm [3]

C#CCN(Cc1ccc(-c2noc(C(F)(F)F)n2)cc1)C(=O)CC=CC [Compound 1.180, N-prop-2-ynyl-N-[[4-[5-(trifluoromethyl)-1,2.4-oxadiazol-3-yl]phenyl]methyl]-pent-3-enamide]
≥ 80%: pest or weed control at 200 ppm (Phakopsora Pachyrhizi) | inhibition of growth at 20 ppm [1] | pest or weed control at 200 ppm [2] | pest or weed control at 200 ppm [3]

CON(Cc1c(F)cc(-c2noc(C(F)(F)F)n2)cc1F)C(=O)C1CC1 [Compound 1.596, N-[[2,6-difluoro-4-[5-(trifluoromethyl)-1,2,4-oxadiazol-3-yl]phenyl]methyl]-N-methoxy-cyclopropane-carboxamide]
≥ 80%: pest or weed control at 200 ppm (Phakopsora Pachyrhizi) | inhibition of growth at 20 ppm [1] | pest or weed control at 200 ppm [2] | pest or weed control at 200 ppm [3]

CCOCC(=O)N(CCOC)Cc1ccc(-c2noc(C(F)(F)F)n2)cc1 [Compound 1.339, 2-ethoxy-N-(2-methoxyethyl)-N-[[4-[5-(trifluoromethyl)-1,2,4-oxadiazol-3-yl]phenyl]methyl]-acetamide]
≥ 80%: pest or weed control at 200 ppm (Phakopsora Pachyrhizi) | inhibition of growth at 20 ppm [1] | pest or weed control at 200 ppm [2] | pest or weed control at 200 ppm [3]

C#CCN(Cc1ccc(-c2noc(C(F)(F)F)n2)cc1)C(=O)Cc1cccnc1 [Compound 1.170, N-prop-2-ynyl-2-(3-pyridyl)-N-[[4-[5-(trifluoromethyl)-1,2,4-oxadiazol-3-yl]phenyl]methyl]-acetamide]
≥ 80%: pest or weed control at 200 ppm (Phakopsora Pachyrhizi) | inhibition of growth at 20 ppm [1] | pest or weed control at 200 ppm [2] | pest or weed control at 200 ppm [3]
